Data reported in PubChem BioAssay AID330 (DTP/NCI, 2004).
Values joined by “and” are separate entries in the source; they are usually repeats but may differ in a detail not shown here. Equal values may be shown once. Toxic doses and inconclusive results are not listed. Rule for the calls: active = survival T/C of 150% or more; inactive = T/C below 125% in these data.

Test system: P388 leukemia ip, CD2F1 mice, survival T/C
Test: NCI In Vivo Anticancer Drug Screen. Data for tumor model P388 Leukemia (intraperitoneal) in CD2F1 (CDF1) mice
Details: endpoint: median survival time, higher = longer survival
Summary of the method: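 Mice carrying the transplanted tumor received test compound or vehicle. Survival was recorded in each group, and the value is the treated-group measurement divided by that of the vehicle-treated control group.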

[1] = dose: 50.0 mg/kg/injection, schedule: Q01DX009 (ip), vehicle: saline with Tween-80
[2] = dose: 100.0 mg/kg/injection, schedule: Q01DX009 (ip), vehicle: saline with Tween-80
[3] = dose: 200.0 mg/kg/injection, schedule: Q01DX009 (ip), vehicle: saline with Tween-80
[4] = dose: 60.0 mg/kg/injection, schedule: Q01DX005 (ip), vehicle: saline with Tween-80
[5] = dose: 120.0 mg/kg/injection, schedule: Q01DX005 (ip), vehicle: saline with Tween-80
[6] = dose: 240.0 mg/kg/injection, schedule: Q01DX005 (ip), vehicle: saline with Tween-80
[7] = dose: 50.0 mg/kg/injection, schedule: Q01DX009 (ip), vehicle: Klucel (hydroxypropylcellulose) (HPC)
[8] = dose: 100.0 mg/kg/injection, schedule: Q01DX009 (ip), vehicle: Klucel (hydroxypropylcellulose) (HPC)
[9] = dose: 100.0 mg/kg/injection, schedule: Q04DX003 (ip), vehicle: saline with Tween-80
[10] = dose: 200.0 mg/kg/injection, schedule: Q04DX003 (ip), vehicle: saline with Tween-80
[11] = dose: 200.0 mg/kg/injection, schedule: Q01DX009 (ip), vehicle: Klucel (hydroxypropylcellulose) (HPC)
[12] = dose: 50.0 mg/kg/injection, schedule: Q01DX005 (ip), vehicle: saline with Tween-80
[13] = dose: 100.0 mg/kg/injection, schedule: Q01DX005 (ip), vehicle: saline with Tween-80
[14] = dose: 200.0 mg/kg/injection, schedule: Q01DX005 (ip), vehicle: saline with Tween-80

Measured: T/C

C(=NCCC[Si]12OCCN(CCO1)CCO2)c1c[nH]c2ccccc12
inactive: dose: 50.0 mg/kg/injection, schedule: Q01DX005 (ip), vehicle: Klucel (hydroxypropylcellulose) (HPC) 104 % of control | dose: 100.0 mg/kg/injection, schedule: Q01DX005 (ip), vehicle: Klucel (hydroxypropylcellulose) (HPC) 103 % of control | dose: 200.0 mg/kg/injection, schedule: Q01DX005 (ip), vehicle: Klucel (hydroxypropylcellulose) (HPC) 102 % of control

O=[N+]([O-])c1cnc(-c2ccc(F)cc2)n1CCO
inactive: [1] 100 % of control | [2] 105 % of control | [3] 112 % of control

Cc1ccc(NC(=O)Nc2ncn[nH]2)c(C)c1
inactive: [1] 107 % of control | [2] 100 % of control | [3] 107 % of control

O=C(C(=O)c1cccc(C(=O)C(=O)c2ccccc2)c1)c1ccccc1
inactive: [4] 104 % of control | [5] 96 % of control | [6] 92 % of control

COc1cc(OC)c(NC(=O)CC2SC(N)=NC2=O)cc1Cl (stereo not given)
inactive: [7] 97 % of control | [8] 97 % of control

c1cnc2c(c1)Nc1cnncc1S2
inactive: dose: 100.0 mg/kg/injection, schedule: Q04DX002 (ip), vehicle: Klucel (hydroxypropylcellulose) (HPC) 98 % of control | dose: 200.0 mg/kg/injection, schedule: Q04DX002 (ip), vehicle: Klucel (hydroxypropylcellulose) (HPC) 100 % of control | dose: 400.0 mg/kg/injection, schedule: Q04DX002 (ip), vehicle: Klucel (hydroxypropylcellulose) (HPC) 92 % of control

OCC1(C2CCN(Cc3ccccc3)CC2)OCCO1
inactive: dose: 25.0 mg/kg/injection, schedule: Q01DX005 (ip), vehicle: saline 101 % of control | dose: 50.0 mg/kg/injection, schedule: Q01DX005 (ip), vehicle: saline 100 % of control | dose: 100.0 mg/kg/injection, schedule: Q01DX005 (ip), vehicle: saline 101 % of control

O=[N+]([O-])c1ccc(/C=N\Nc2ccc([N+](=O)[O-])cn2)cc1
inactive: dose: 100.0 mg/kg/injection, schedule: Q01DX009 (ip), vehicle: saline 100 % of control | [9] 90 % of control | dose: 200.0 mg/kg/injection, schedule: Q01DX009 (ip), vehicle: saline 115 % of control | [10] 104 % of control | dose: 400.0 mg/kg/injection, schedule: Q01DX009 (ip), vehicle: saline 105 % of control | dose: 400.0 mg/kg/injection, schedule: Q04DX003 (ip), vehicle: saline with Tween-80 109 % of control

CCCCN(CCCC)CC(O)c1cc2c(Cl)cc(Cl)cc2c2cc(C(F)(F)F)ccc12 (stereo not given)
inactive: [1] 97 % of control | [2] 100 % of control | [3] 100 % of control

CS(=O)(=O)OC1C(O)C(n2cnc3c(N)ncnc32)C(O)C(OS(C)(=O)=O)C1OS(C)(=O)=O (stereo not given)
inactive: [4] 98 % of control | [5] 95 % of control | [6] 96 % of control

CC12C=CC(C)(C3C(=O)NC(=O)C31)C1C3C(=O)NC(=O)C3C12 (stereo not given)
inactive: dose: 25.0 mg/kg/injection, schedule: Q01DX009 (ip), vehicle: Klucel (hydroxypropylcellulose) (HPC) 106 % of control | [7] 109 % of control | [8] 106 % of control | [11] 109 % of control

CC(C)(C)OC(=O)N1CCc2c([nH]oc2=O)C1
inactive: dose: 50.0 mg/kg/injection, schedule: Q01DX009 (ip), vehicle: suspension in saline 92 % of control | dose: 100.0 mg/kg/injection, schedule: Q01DX009 (ip), vehicle: suspension in saline 90 % of control | dose: 200.0 mg/kg/injection, schedule: Q01DX009 (ip), vehicle: suspension in saline 90 % of control

C=C1C(=O)OC2C(OC(=O)CC)CCCC12 (stereo not given)
inactive: dose: 60.0 mg/kg/injection, schedule: Q01DX005 (ip), vehicle: Klucel (hydroxypropylcellulose) (HPC) 95 % of control | dose: 120.0 mg/kg/injection, schedule: Q01DX005 (ip), vehicle: Klucel (hydroxypropylcellulose) (HPC) 98 % of control | dose: 240.0 mg/kg/injection, schedule: Q01DX005 (ip), vehicle: Klucel (hydroxypropylcellulose) (HPC) 110 % of control

O=C(O)c1cc(-c2ccc(O)c(O)c2)nc2cc3ccccc3cc12
inactive: [7] 97 % of control | [8] 108 % of control | [11] 92 % of control

O=C1NN=C2CCCCCCCCCCC12 (stereo not given)
inactive: [1] 96 % of control | [2] 89 % of control | [3] 89 % of control

O=C1NCCc2ccc(cc2)OCCC(=O)N2CCCC12 (stereo not given)
inactive: dose: 35.0 mg/kg/injection, schedule: Q01DX005 (ip), vehicle: Klucel (hydroxypropylcellulose) (HPC) 107 % of control | dose: 70.0 mg/kg/injection, schedule: Q01DX005 (ip), vehicle: Klucel (hydroxypropylcellulose) (HPC) 104 % of control | dose: 140.0 mg/kg/injection, schedule: Q01DX005 (ip), vehicle: Klucel (hydroxypropylcellulose) (HPC) 98 % of control

COc1ccccc1NC(=O)CC(=O)N1N=C(C)C(N=Nc2ccc(I)cc2)C1=O (stereo not given)
inactive: [12] 95 % of control | [13] 100 % of control | [14] 92 % of control

CCOc1nc(C(=O)O)cc2ccsc12
inactive: dose: 100.0 mg/kg/injection, schedule: Q01DX001 (ip), vehicle: Klucel (hydroxypropylcellulose) (HPC) 90 % of control | dose: 200.0 mg/kg/injection, schedule: Q01DX001 (ip), vehicle: Klucel (hydroxypropylcellulose) (HPC) 94 % of control | dose: 400.0 mg/kg/injection, schedule: Q01DX001 (ip), vehicle: Klucel (hydroxypropylcellulose) (HPC) 96 % of control

CC12CCC3c4ccc(OP(=O)(N5CC5)N5CC5)cc4CCC3C1CCC2O (stereo not given)
inactive: dose: 12.5 mg/kg/injection, schedule: Q01DX009 (ip), vehicle: saline with Tween-80 96 % of control and 97 % of control | dose: 25.0 mg/kg/injection, schedule: Q01DX009 (ip), vehicle: saline with Tween-80 110 % of control and 96 % of control | [1] 100 % of control and 92 % of control | [2] 115 % of control

C/C(=N/NC(N)=O)c1cccc(/C(C)=N/NC(N)=O)n1.[Cl][Cu][Cl]
inactive: dose: 3.12 mg/kg/injection, schedule: Q01DX009 (ip), vehicle: saline 108 % of control | dose: 6.25 mg/kg/injection, schedule: Q01DX009 (ip), vehicle: saline 94 % of control | dose: 12.5 mg/kg/injection, schedule: Q01DX009 (ip), vehicle: saline 99 % of control

COc1ccc(NC(N)=S)cc1OC
inactive: dose: 50.0 mg/kg/injection, schedule: Q04DX003 (ip), vehicle: saline with Tween-80 95 % of control | [9] 88 % of control | [10] 88 % of control

CC1=NN(C(=O)NS(=O)(=O)c2ccc(CCNC(=O)c3nccnc3N)cc2)C(C)(C)C1
inactive: [12] 102 % of control | [13] 105 % of control | [14] 102 % of control
